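How tested: cells in 96-well plates exposed to compound for 48 hours at five concentrations. TGI: total growth inhibition.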
Tests used:
Test in all cases: DTP human tumour cell line panel, 48 h
SNB-19 CNS = system: SNB-19 CNS
MDA-MB-231 breast = system: MDA-MB-231 breast
HS 578T breast = system: HS 578T breast
MDA-N = system: MDA-N
SK-MEL-28 melanoma = system: SK-MEL-28 melanoma
OVCAR-8 ovarian = system: OVCAR-8 ovarian
SF-295 CNS = system: SF-295 CNS
NCI-H460 lung = system: NCI-H460 lung
MOLT-4 leukemia = system: MOLT-4 leukemia
UACC-257 melanoma = system: UACC-257 melanoma
MDA-MB-435 = system: MDA-MB-435
HCC-2998 colon = system: HCC-2998 colon
K-562 leukemia = system: K-562 leukemia
786-0 renal = system: 786-0 renal
HCT-15 colon = system: HCT-15 colon
SNB-75 CNS = system: SNB-75 CNS
TK-10 renal = system: TK-10 renal
OVCAR-4 ovarian = system: OVCAR-4 ovarian
U251 CNS = system: U251 CNS
PC-3 prostate = system: PC-3 prostate
COLO 205 colon = system: COLO 205 colon
MALME-3M melanoma = system: MALME-3M melanoma
HCT-116 colon = system: HCT-116 colon
RPMI-8226 leukemia = system: RPMI-8226 leukemia
SW-620 colon = system: SW-620 colon
MCF7 breast = system: MCF7 breast
NCI-H23 lung = system: NCI-H23 lung
A549 NSCLC = system: A549 NSCLC
NCI-H522 lung = system: NCI-H522 lung
NCI/ADR-RES ovarian = system: NCI/ADR-RES ovarian
KM12 colon = system: KM12 colon
T-47D breast = system: T-47D breast
HL-60(TB) leukemia = system: HL-60(TB) leukemia
UACC-62 melanoma = system: UACC-62 melanoma
HOP-62 NSCLC = system: HOP-62 NSCLC
SK-MEL-2 melanoma = system: SK-MEL-2 melanoma
SK-MEL-5 melanoma = system: SK-MEL-5 melanoma
CCRF-CEM leukemia = system: CCRF-CEM leukemia
OVCAR-5 ovarian = system: OVCAR-5 ovarian
M14 melanoma = system: M14 melanoma
DU-145 prostate = system: DU-145 prostate
ACHN renal = system: ACHN renal
UO-31 renal = system: UO-31 renal
SN12C renal = system: SN12C renal
SF-268 CNS = system: SF-268 CNS
HOP-92 NSCLC = system: HOP-92 NSCLC
SK-OV-3 ovarian = system: SK-OV-3 ovarian
EKVX NSCLC = system: EKVX NSCLC
IGROV1 ovarian = system: IGROV1 ovarian
SR leukemia = system: SR leukemia
OVCAR-3 ovarian = system: OVCAR-3 ovarian
BT-549 breast = system: BT-549 breast
NCI-H226 lung = system: NCI-H226 lung
LOX IMVI melanoma = system: LOX IMVI melanoma
CAKI-1 renal = system: CAKI-1 renal
A498 renal = system: A498 renal

## CCOC(=O)CCc1cccc2c1oc1c(CCNC(=O)OCC3c4ccccc4-c4ccccc43)cccc12
SNB-19 CNS
  TGI: 70.6 µM
MDA-MB-231 breast
  TGI: > 100 µM
HS 578T breast
  TGI: 16.5 µM
MDA-N
  TGI: > 100 µM
SK-MEL-28 melanoma
  TGI: > 100 µM
OVCAR-8 ovarian
  TGI: > 100 µM
SF-295 CNS
  TGI: > 100 µM
NCI-H460 lung
  TGI: > 100 µM
MOLT-4 leukemia
  TGI: > 100 µM
UACC-257 melanoma
  TGI: > 100 µM
MDA-MB-435
  TGI: > 100 µM
HCC-2998 colon
  TGI: > 100 µM
K-562 leukemia
  TGI: > 100 µM
786-0 renal
  TGI: > 100 µM
HCT-15 colon
  TGI: > 100 µM
SNB-75 CNS
  TGI: 42.1 µM
TK-10 renal
  TGI: > 100 µM
OVCAR-4 ovarian
  TGI: > 100 µM
U251 CNS
  TGI: > 100 µM
PC-3 prostate
  TGI: > 100 µM
COLO 205 colon
  TGI: > 100 µM
MALME-3M melanoma
  TGI: 58.4 µM
HCT-116 colon
  TGI: > 100 µM
RPMI-8226 leukemia
  TGI: > 100 µM
SW-620 colon
  TGI: > 100 µM
MCF7 breast
  TGI: > 100 µM
NCI-H23 lung
  TGI: > 100 µM
A549 NSCLC
  TGI: > 100 µM
NCI-H522 lung
  TGI: > 100 µM
NCI/ADR-RES ovarian
  TGI: > 100 µM
KM12 colon
  TGI: > 100 µM
T-47D breast
  TGI: 81.1 µM
HL-60(TB) leukemia
  TGI: > 100 µM
UACC-62 melanoma
  TGI: 63.6 µM
HOP-62 NSCLC
  TGI: 52.3 µM
SK-MEL-2 melanoma
  TGI: > 100 µM
SK-MEL-5 melanoma
  TGI: > 100 µM
CCRF-CEM leukemia
  TGI: > 100 µM
OVCAR-5 ovarian
  TGI: > 100 µM
M14 melanoma
  TGI: > 100 µM
DU-145 prostate
  TGI: > 100 µM
ACHN renal
  TGI: > 100 µM
UO-31 renal
  TGI: > 100 µM
SN12C renal
  TGI: > 100 µM
SF-268 CNS
  TGI: 70.3 µM
HOP-92 NSCLC
  TGI: 85.6 µM
SK-OV-3 ovarian
  TGI: > 100 µM
EKVX NSCLC
  TGI: > 100 µM
IGROV1 ovarian
  TGI: > 100 µM
SR leukemia
  TGI: > 100 µM
OVCAR-3 ovarian
  TGI: > 100 µM
BT-549 breast
  TGI: 68.4 µM
NCI-H226 lung
  TGI: > 100 µM
LOX IMVI melanoma
  TGI: > 100 µM
CAKI-1 renal
  TGI: 45.4 µM
A498 renal
  TGI: > 100 µM

— PubChem BioAssay (NCI)
